Where two headings read alike, the source gives them in different places. Square brackets hold non-standard residues; d marks the D form. Ends that are not written are not given here. Peptide text beside a SMILES is read from it. * marks the point of attachment. Sta = CC(C)C[C@H](N)[C@@H](O)CC(=O)O; Isovaleryl = CC(C)CC(=O)*
Assays:
HLA-A*0201 [1] = target: HLA-A*0201 (Homo sapiens, UniProt P04439, /I218V/L300P/L318F/N151K/N90K/P208A/P217A/Q86G/Q94H/R138H/R169H/T345S); assay: biochemical; type: binding; conditions: HLA-A*0201-transfected TAP-deficient RMA-S cells, peptide 2 h 26°C then 2 h 37°C, concentration range 0.001-100 μM, mAb PA2.1, flow cytometry, mean ± SD of four independent experiments, read-out: HLA-A*0201 Affinity values, EC50
[2] = system: CHIKV 6K51-59 epitope presentation by rVACV-CHIKV-infected HLA-A*0201+ DC; assay: cells; type: cell-based, HLA-A*0201-transgenic mice
[3] = system: VACV D12I251-259 epitope presentation by infected HLA-A*0201+ DC; type: cell-based, HLA-A*0201-transgenic mice; conditions: for percentage of inhibition of recognition by VACV D12I251-259-specific CD8+ T cells: SD
HLA-A*0201 [4] = target: HLA-A*0201 (Homo sapiens, UniProt P04439, D140Y/D185E/D98H/E176V/E277Q/G131W/G231S/I119V/I121R/I166T/I218V/L300P/L318F/N151K/N90K/P208A/P217A/Q86G/Q94H/R138H/R169H/T345S); assay: biochemical; type: binding; conditions: HLA-A*0201-transfected TAP-deficient RMA-S cells; for binding to HLA-A*0201 (HLA-peptide surface complexes), in words: MHC-peptide complex stability assay
[5] = system: CHIKV 6K peptide-specific CD8+ T cell lines; type: cell-based, HLA-A*0201-transgenic mice; conditions: ICS
[6] = Mus musculus, T-cell, 5 h, read-out: percentage of inhibition of recognition by CHIKV 6K51-59-specific CD8+ T cells, SD

CC(C)C[C@H](NC(=O)[C@H](CC(C)C)NC(=O)[C@H](CCCNC(=N)N)NC(=O)[C@H](CC(C)C)NC(=O)[C@H](CS)NC(=O)[C@H](CC(N)=O)NC(=O)[C@H](CS)NC(=O)[C@H](CC(C)C)NC(=O)[C@@H](N)C(C)C)C(=O)O [6K 31–39] (H-VLCNCLRLL-OH)
EC50 (HLA-A*0201 [1]; SD): 5 ± 3 µM

CC(C)C[C@H](NC(=O)[C@@H](NC(=O)[C@H](CCCCN)NC(=O)[C@H](CS)NC(=O)[C@H](CS)NC(=O)[C@H](CS)NC(=O)[C@@H]1CCCN1C(=O)[C@H](CC(C)C)NC(=O)[C@H](CC(C)C)NC(=O)[C@@H](N)CCCNC(=N)N)[C@@H](C)O)C(=O)O [6K 37–46] (H-RLLPCCCKTL-OH)
EC50 (HLA-A*0201 [1]; SD): 8 ± 6 µM

CC(C)C[C@H](NC(=O)[C@@H](O)[C@H](N)Cc1ccccc1)C(=O)O [BEST, Bestatin]
effect on recognition by CHIKV 6K51-59-specific CD8+ T cell line, in words [2]: unaffected

C[C@H]1CCC/C=C/[C@@H]2C[C@H](O)C[C@H]2[C@H](O)/C=C/C(=O)O1 [BFA, Brefeldin]
effect on VACV D12I251-259 epitope presentation, in words [3]: complete inhibition | effect on recognition by CHIKV 6K51-59-specific CD8+ T cell line, in words [2]: completely inhibited

CCN(CC)CCCC(C)Nc1ccnc2cc(Cl)ccc12 (stereo not drawn) [CQ, Chloroquine]
inhibition at 50 µM [2, 6]: 69 ± 19%

CC(C)C[C@H](NC(=O)[C@H]1O[C@@H]1C(=O)O)C(=O)NCCCCN=C(N)N [E64]
effect on recognition by CHIKV 6K51-59-specific CD8+ T cell line, in words [2]: None of these inhibitors affected

O=C(O)CN(CCN(CC(=O)O)CC(=O)O)CC(=O)O [EDTA, Ethylenediaminetetraacetic acid]
effect on recognition by CHIKV 6K51-59-specific CD8+ T cell line, in words [2]: unaffected

CC(=O)N[C@@H](CSC(=O)[C@]1([C@@H](O)C(C)C)NC(=O)[C@H](C)[C@@H]1O)C(=O)O [LC, Lactacystin]
effect on VACV D12I251-259 epitope presentation, in words [3]: lesser effect | inhibition at 10 µM [2, 6]: 83 ± 3%

CC(=O)N[C@@H](CC(C)C)C(=O)N[C@@H](CC(C)C)C(=O)N[C@H](C=O)CCCNC(=N)N [LEU, Leupeptin]
effect on recognition by CHIKV 6K51-59-specific CD8+ T cell line, in words [2]: None of these inhibitors affected

CC(C)C[C@H](N)CS [Leu-SH, Leucinthiol]
effect on VACV D12I251-259 epitope presentation, in words [3]: lesser effect | percentage of inhibition of recognition by CHIKV 6K51-59-specific CD8+ T cells ([2]; SD): 91 ± 13%

CC(C)CC(=O)N[C@H](C(=O)N[C@H](C(=O)N[C@@H](CC(C)C)[C@@H](O)CC(=O)N[C@@H](C)C(=O)N[C@@H](CC(C)C)[C@@H](O)CC(=O)O)C(C)C)C(C)C [PEPST, Pepstatin] (Isovaleryl-VV[Sta]A[Sta]-OH)
effect on recognition by CHIKV 6K51-59-specific CD8+ T cell line, in words [2]: None of these inhibitors affected

c1cnc2c(c1)ccc1cccnc12 [PHE, 1–10 Phenanthroline]
effect on recognition by CHIKV 6K51-59-specific CD8+ T cell line, in words [2]: None of these inhibitors affected

O=S(=O)(F)Cc1ccccc1 [PMSF, Phenylmethane sulfonylfluoride]
effect on recognition by CHIKV 6K51-59-specific CD8+ T cell line, in words [2]: None of these inhibitors affected

COc1ccc(C[C@H](N)C(=O)N[C@H]2[C@@H](O)[C@H](n3cnc4c(N(C)C)ncnc43)O[C@@H]2CO)cc1 [PURO, Puromycin]
percentage of inhibition of recognition by VACV D12I251-259-specific CD8+ T cells [3]: 4 ± 6% | inhibition at 0.5 µg/mL [2, 6]: 47 ± 21%

ALIPLAALI [6K 22–30]
EC50 (HLA-A*0201 [1]; SD): 33 ± 28 µM

ALIPLAALIV [6K 22–31]
EC50 (HLA-A*0201 [1]; SD): 21 ± 20 µM

ALIVLCNCL [6K 28–36]
binding to HLA-A*0201 (HLA-peptide surface complexes), in words (HLA-A*0201 [4]): not detected | HLA-A*0201 Affinity values, EC50 (HLA-A*0201 [4]; peptide 2 h 26°C then 2 h 37°C, concentration range 0.001-100 μM, mAb PA2.1, flow cytometry, mean ± SD of four independent experiments): No binding

Decanoyl-Arg-Val-Lys-Arg-chloromethylketone [dec-RVKR]
percentage of inhibition of recognition by VACV D12I251-259-specific CD8+ T cells [3]: 4 ± 6% | percentage of inhibition of recognition by CHIKV 6K51-59-specific CD8+ T cells ([2]; SD): 43 ± 20%

ILDRIITNA [A10L 688-696]
EC50 (HLA-A*0201 [1]; SD): 3 ± 3 µM

QALIPLAAL [6K 21–29]
specific recognition of peptide-pulsed DC by CTL line, in words [5]: no specific recognition | binding to HLA-A*0201 (HLA-peptide surface complexes), in words (HLA-A*0201 [4]): residual | EC50 (HLA-A*0201 [1]): > 200 µM

TLAFLAVMSV [6K 45–54]
EC50 (HLA-A*0201 [1]; SD): 1 ± 0.5 µM

VMSVGAHTV [6K 51–59]
EC50 (HLA-A*0201 [1]; SD): 9 ± 1 µM

From paper PMC5679651, “Complex antigen presentation pathway for an HLA-A*0201-restricted epitope from Chikungunya 6K protein” (PLoS Neglected Tropical Diseases, 2017)
